For this test, the system named is Phakopsora pachyrhizi. Briefly: Glasshouse pot trial: efficacy on soybean rust on soybean (Glycine max), visual estimation of degree of infection on leaves. It is filed as in vivo. The procedure:
In the tables presented below, the following terms have the following meaning:
Glasshouse pot trials were conducted to evaluate the effect and efficacy of silthiofam on soybean rust disease on soybean (Glycine max).
The trial was divided in 11 treatments. In 4 of the treatments, silthiofam was applied in different amounts.
Silthiofam compositions used in this trial were prepared from the suspension concentrate containing 125 g/L of silthiofam, diluted with water to predetermined concentration and sprayed on the plants in the predetermined amounts.
In two of the treatments, silthiofam was applied in combination with additional ingredients.
First combination was of silthiofam and chitosan, wherein silthiofam was applied in an amount of 250 g/ha on the plant first and chitosan was applied subsequently in an amount of 200 g/ha.
Second combination was a combination of silthiofam and tagatose, wherein silthiofam was applied in an amount of 250 g/ha simultaneously with tagatose in an amount of 200 g/ha.
Further 6 treatments were current market available treatments of soybean rust applied in the label prescribed dose, wherein the compositions used were prepared from commercially available products prepared according to the respective label instructions and sprayed on the plants.
One treatment of the trial consisted of fungi inoculated plants which received no treatment.
Soybean plants were treated two times with silthiofam and other treatments. First treatment was applied when soybean plants reached stage BBCH16 and the second treatment was applied when soybean plants reached stage BBCH61. Growth stages were defined according to Compendium of Growth Stage Identification Keys for Mono- and Dicotyledonous Plants, Extended BBCH scale, 2nd Edition 1997, ISBN 3-9520749-3-4.
After silthiofam and other treatments were applied first time, plants were inoculated with Phakopsora pachyrhizi spores and evaluation of leaves condition and disease spread was done every 7 days.
Method used for evaluation of disease spread was visual estimation of degree of infection on leaves.
The experimental design of the pot trial was randomized design with 4 pot replications per treatment applied, wherein six soybean plants were planted per pot.
Treatments were the following:
Treatment 1: Plant inoculated with P. pachyrhizi, no treatment applied
Treatment 2: Treatment with flutriafol and azoxystrobin mixture, applied in concentration of 31.25 g flutriafol/ha and 37.5 g azoxystrobin/ha
Treatment 3: Silthiofam treatment applied in 250 g silthiofam/ha
Treatment 4: Silthiofam treatment applied in 500 g silthiofam/ha
Treatment 5: Silthiofam treatment applied in 250 g silthiofam/ha and 200 g/ha of tagatose
Treatment 6: Silthiofam treatment applied in 250 g silthiofam/ha and 200 g/ha of chitosan
Treatment 7: Mancozeb applied in 1.68 kg mancozeb/ha
Treatment 8: Chlorothalonil applied in 626.4 g chlorothalonil/ha
Treatment 9: Azoxystrobin applied in 37.5 g azoxystrobin/ha
Treatment 10: Boscalid applied in 294 g boscalid/ha
Treatment 11: Prothioconazole and tebuconazole mixture applied as 42 g prothioconazole/ha and 84 g tebuconazole/ha

Several values for one entry are separate records, joined by “and”; a condition that tells them apart may be missing. Equal values may be shown once.

With Mancozeb, the “% efficacy” value reads like this: (mancozeb 1.68 kg/ha, 7/7 d after first/last application, 19 d after planting, LEALOW) 50.0% and 65.9% and 64.6% and 61.2%; (mancozeb 1.68 kg/ha, 7/7 d after first/last application, 19 d after planting, LEAMID) 46.7% and 72.3% and 54.6% and 50.0%; (mancozeb 1.68 kg/ha, 7/7 d after first/last application, 19 d after planting, LEAUPP) 100.0%; (mancozeb 1.68 kg/ha, 14/14 d after first/last application, 26 d after planting, LEALOW) 67.0% and 75.0% and 56.4% and 64.3%; (mancozeb 1.68 kg/ha, 14/14 d after first/last application, 26 d after planting, LEAMID) 82.0% and 78.0% and 73.5%; (mancozeb 1.68 kg/ha, 14/14 d after first/last application, 26 d after planting, LEAUPP) 83.8% and 72.3% and 85.9% and 76.0%. The “% efficacy” value (mancozeb 1.68 kg/ha, 21/21 d after first/last application, 33 d after planting, LEALOW) is 42.0% and 38.0% and 52.0% and 48.0%; the “% efficacy” value (mancozeb 1.68 kg/ha, 21/21 d after first/last application, 33 d after planting, LEAMID) is 66.0% and 62.0% and 59.0% and 60.0%; the “% efficacy” value (mancozeb 1.68 kg/ha, 21/21 d after first/last application, 33 d after planting, LEAUPP) is 71.0% and 72.3% and 66.7% and 60.0%; the “% efficacy” value (mancozeb 1.68 kg/ha, 28/7 d after first/last application, 40 d after planting, LEALOW) is 28.0% and 35.0% and 32.0% and 25.0%; the “% efficacy” value (mancozeb 1.68 kg/ha, 28/7 d after first/last application, 40 d after planting, LEAMID) is 62.0% and 56.0% and 54.0% and 49.0%; the “% efficacy” value (mancozeb 1.68 kg/ha, 28/7 d after first/last application, 40 d after planting, LEAUPP) was 82.1% and 74.2% and 73.7% and 68.9%. Further, the “% efficacy” value (mancozeb 1.68 kg/ha, 35/14 d after first/last application, 47 d after planting, LEAMID) was 48.0% and 36.0% and 32.0% and 43.0%; the “% efficacy” value (mancozeb 1.68 kg/ha, 35/14 d after first/last application, 47 d after planting, LEAUPP) was 72.6% and 67.0% and 59.0% and 54.8%; the “% efficacy” value (mancozeb 1.68 kg/ha, 42/21 d after first/last application, 54 d after planting, LEAUPP) was 54.0% and 43.0% and 52.0% and 38.0%.

In the case of `O=C(Nc1ccccc1-c1ccc(Cl)cc1)c1cccnc1Cl` [Boscalid], the “% efficacy” value is 85.8% and 86.4% and 93.6% and 100.0% (boscalid 294 g/ha, 7/7 d after first/last application, 19 d after planting, LEALOW); 100.0% (boscalid 294 g/ha, 7/7 d after first/last application, 19 d after planting, LEAMID); 100.0% (boscalid 294 g/ha, 7/7 d after first/last application, 19 d after planting, LEAUPP); 76.0% and 80.0% and 78.0% (boscalid 294 g/ha, 14/14 d after first/last application, 26 d after planting, LEALOW); 90.0% and 86.8% and 88.0% and 85.1% (boscalid 294 g/ha, 14/14 d after first/last application, 26 d after planting, LEAMID); 98.6% and 92.6% and 98.7% (boscalid 294 g/ha, 14/14 d after first/last application, 26 d after planting, LEAUPP). Also, the “% efficacy” value (boscalid 294 g/ha, 21/21 d after first/last application, 33 d after planting, LEALOW) was 55.0% and 42.0% and 38.0% and 35.0%; the “% efficacy” value (boscalid 294 g/ha, 21/21 d after first/last application, 33 d after planting, LEAMID) is 56.0% and 49.0% and 55.0% and 52.0%; the “% efficacy” value (boscalid 294 g/ha, 21/21 d after first/last application, 33 d after planting, LEAUPP) is 91.9% and 88.9% and 89.4% and 92.9%; the “% efficacy” value (boscalid 294 g/ha, 28/7 d after first/last application, 40 d after planting, LEALOW) is 49.0% and 52.0% and 51.0% and 44.0%; the “% efficacy” value (boscalid 294 g/ha, 28/7 d after first/last application, 40 d after planting, LEAMID) was 44.0% and 48.0% and 56.0% and 52.0%; the “% efficacy” value (boscalid 294 g/ha, 28/7 d after first/last application, 40 d after planting, LEAUPP) was 85.9% and 100.0% and 93.1% and 85.7%. Besides, the “% efficacy” value (boscalid 294 g/ha, 35/14 d after first/last application, 47 d after planting, LEAMID) was 35.0% and 42.0% and 48.0% and 43.0%; the “% efficacy” value (boscalid 294 g/ha, 35/14 d after first/last application, 47 d after planting, LEAUPP) was 83.6% and 82.0% and 77.3% and 82.2%; the “% efficacy” value (boscalid 294 g/ha, 42/21 d after first/last application, 54 d after planting, LEAUPP) was 75.0% and 67.0% and 64.0% and 72.0%.

As to `CO/C=C(/C(=O)OC)c1ccccc1Oc1cc(Oc2ccccc2C#N)ncn1` [Azoxystrobin], the “% efficacy” value is 64.3% and 72.8% and 67.8% and 77.8% (azoxystrobin 37.5 g/ha, 7/7 d after first/last application, 19 d after planting, LEALOW); 73.4% and 88.9% and 81.9% and 100.0% (azoxystrobin 37.5 g/ha, 7/7 d after first/last application, 19 d after planting, LEAMID); 100.0% (azoxystrobin 37.5 g/ha, 7/7 d after first/last application, 19 d after planting, LEAUPP); 85.0% and 79.0% and 84.1% and 80.6% (azoxystrobin 37.5 g/ha, 14/14 d after first/last application, 26 d after planting, LEALOW); 92.0% and 94.5% and 90.0% and 89.4% (azoxystrobin 37.5 g/ha, 14/14 d after first/last application, 26 d after planting, LEAMID); 98.6% and 90.8% and 98.7% (azoxystrobin 37.5 g/ha, 14/14 d after first/last application, 26 d after planting, LEAUPP). Further, the “% efficacy” value is, setting by setting: (azoxystrobin 37.5 g/ha, 21/21 d after first/last application, 33 d after planting, LEALOW) 72.0% and 65.0% and 59.0% and 60.0%; (azoxystrobin 37.5 g/ha, 21/21 d after first/last application, 33 d after planting, LEAMID) 82.0% and 79.0% and 90.0% and 78.0%; (azoxystrobin 37.5 g/ha, 21/21 d after first/last application, 33 d after planting, LEAUPP) 100.0%; (azoxystrobin 37.5 g/ha, 28/7 d after first/last application, 40 d after planting, LEALOW) 54.0% and 67.0% and 65.0% and 62.0%; (azoxystrobin 37.5 g/ha, 28/7 d after first/last application, 40 d after planting, LEAMID) 82.0% and 85.0% and 88.0%; (azoxystrobin 37.5 g/ha, 28/7 d after first/last application, 40 d after planting, LEAUPP) 100.0%. For the same compound, the “% efficacy” value is, setting by setting: (azoxystrobin 37.5 g/ha, 35/14 d after first/last application, 47 d after planting, LEAMID) 85.0% and 88.0% and 82.0%; (azoxystrobin 37.5 g/ha, 35/14 d after first/last application, 47 d after planting, LEAUPP) 100.0% and 98.9%; (azoxystrobin 37.5 g/ha, 42/21 d after first/last application, 54 d after planting, LEAMID) 52.0% and 62.0% and 56.0% and 58.0%; (azoxystrobin 37.5 g/ha, 42/21 d after first/last application, 54 d after planting, LEAUPP) 82.0% and 85.0% and 86.0%.

`N#Cc1c(Cl)c(Cl)c(Cl)c(C#N)c1Cl` [Chlorothalonil]: the “% efficacy” value (chlorothalonil 626.4 g/ha, 7/7 d after first/last application, 19 d after planting, LEALOW) is 35.8% and 65.9% and 54.9% and 50.0%; the “% efficacy” value (chlorothalonil 626.4 g/ha, 7/7 d after first/last application, 19 d after planting, LEAUPP) is given as 100.0%; the “% efficacy” value (chlorothalonil 626.4 g/ha, 14/14 d after first/last application, 26 d after planting, LEALOW) was 75.0% and 69.0% and 68.1% and 59.2%; the “% efficacy” value (chlorothalonil 626.4 g/ha, 14/14 d after first/last application, 26 d after planting, LEAMID) is 85.0% and 80.2% and 79.0% and 67.1%; the “% efficacy” value (chlorothalonil 626.4 g/ha, 14/14 d after first/last application, 26 d after planting, LEAUPP) is 88.3% and 81.5% and 78.9% and 80.0%; the “% efficacy” value (chlorothalonil 626.4 g/ha, 21/21 d after first/last application, 33 d after planting, LEALOW) is 55.0% and 40.0% and 44.0% and 45.0%. Moreover, the “% efficacy” value reads like this: (chlorothalonil 626.4 g/ha, 21/21 d after first/last application, 33 d after planting, LEAMID) 72.0% and 70.0% and 65.0% and 62.0%; (chlorothalonil 626.4 g/ha, 21/21 d after first/last application, 33 d after planting, LEAUPP) 82.3% and 80.6% and 72.0% and 64.3%; (chlorothalonil 626.4 g/ha, 28/7 d after first/last application, 40 d after planting, LEALOW) 22.0% and 34.0% and 32.0% and 26.0%; (chlorothalonil 626.4 g/ha, 28/7 d after first/last application, 40 d after planting, LEAMID) 56.0% and 52.0% and 55.0% and 54.0%; (chlorothalonil 626.4 g/ha, 28/7 d after first/last application, 40 d after planting, LEAUPP) 74.4% and 70.6% and 70.9% and 76.7%; (chlorothalonil 626.4 g/ha, 35/14 d after first/last application, 47 d after planting, LEAMID) 52.0% and 44.0% and 48.0% and 42.0%. Moreover, the “% efficacy” value by setting is: (chlorothalonil 626.4 g/ha, 35/14 d after first/last application, 47 d after planting, LEAUPP) 63.8% and 69.0% and 68.0%; (chlorothalonil 626.4 g/ha, 42/21 d after first/last application, 54 d after planting, LEAUPP) 52.0% and 45.0% and 42.0% and 48.0%.

The record behind these values is patent US11197479B2, “Use of silthiofam for the treatment of soybean rust” (priority 2018, dated 2021).
